Data published in US9650363B2, “Integrin antagonist conjugates for targeted delivery to cells expressing LFA-1” (Hoffmann-La Roche Inc., priority 2012, dated 2017).
pIC50: −log10 of the molar value.

Molecular target: sLFA-1/ICAM-1 (Homo sapiens, UniProt P05107+P20701, DEL701-769)
Experiment: sLFA-1/ICAM-1 ELISA (inhibition of 5dICAM-Fc binding to coated receptor)
Settings: control compounds; ICAM-1 binding ELISA, sLFA-1 or Mac-1 coated plates
Procedure: • Small molecules equipped with a maleimide functionality were covalently conjugated to the RNA through a thioether linkage. To enable this chemistry, ˜60 mg of the RNA containing the 5′-disulfide linker was reduced in water (5 mL) to the corresponding thiol using 1 mL TCEP (0.5 M in water, obtained from Sigma Aldrich). Once analytical anion exchange HPLC indicated completion of the reaction (˜2 h at room temperature) the RNA was precipitated with 30 mL ethanol/3M NaOAc (pH 5.4) 32:1 (v/v) over night at −20° C. The pellet was collected by centrifugation and used for the subsequent small molecule conjugation. • In a typical conjugation reaction 10 mg RNA was dissolved in 2 mL sodium phosphate buffer (0.1 M, pH 7.0). To this solution the small molecule (0.12 mM) in ACN/NMP 1:1 (v/v) was added over a period of 5 minutes. […] The pellet was collected by centrifugation, dissolved in water and if necessary purified by anion exchange HPLC pursuing the procedure given above. If the conjugate is sufficiently pure the reaction mixture was filtered through a size exclusion column (Sephadex G-25, GE Healthcare). Annealing of Oligoribonucleotides to Generate siRNA • Complementary strands were annealed by combining equimolar RNA solutions. […] Absorbance was measured at 450 nm. […]

Sequence of sLFA-1/ICAM-1 (P20701 26-1090 limits assumed, stated change not applied): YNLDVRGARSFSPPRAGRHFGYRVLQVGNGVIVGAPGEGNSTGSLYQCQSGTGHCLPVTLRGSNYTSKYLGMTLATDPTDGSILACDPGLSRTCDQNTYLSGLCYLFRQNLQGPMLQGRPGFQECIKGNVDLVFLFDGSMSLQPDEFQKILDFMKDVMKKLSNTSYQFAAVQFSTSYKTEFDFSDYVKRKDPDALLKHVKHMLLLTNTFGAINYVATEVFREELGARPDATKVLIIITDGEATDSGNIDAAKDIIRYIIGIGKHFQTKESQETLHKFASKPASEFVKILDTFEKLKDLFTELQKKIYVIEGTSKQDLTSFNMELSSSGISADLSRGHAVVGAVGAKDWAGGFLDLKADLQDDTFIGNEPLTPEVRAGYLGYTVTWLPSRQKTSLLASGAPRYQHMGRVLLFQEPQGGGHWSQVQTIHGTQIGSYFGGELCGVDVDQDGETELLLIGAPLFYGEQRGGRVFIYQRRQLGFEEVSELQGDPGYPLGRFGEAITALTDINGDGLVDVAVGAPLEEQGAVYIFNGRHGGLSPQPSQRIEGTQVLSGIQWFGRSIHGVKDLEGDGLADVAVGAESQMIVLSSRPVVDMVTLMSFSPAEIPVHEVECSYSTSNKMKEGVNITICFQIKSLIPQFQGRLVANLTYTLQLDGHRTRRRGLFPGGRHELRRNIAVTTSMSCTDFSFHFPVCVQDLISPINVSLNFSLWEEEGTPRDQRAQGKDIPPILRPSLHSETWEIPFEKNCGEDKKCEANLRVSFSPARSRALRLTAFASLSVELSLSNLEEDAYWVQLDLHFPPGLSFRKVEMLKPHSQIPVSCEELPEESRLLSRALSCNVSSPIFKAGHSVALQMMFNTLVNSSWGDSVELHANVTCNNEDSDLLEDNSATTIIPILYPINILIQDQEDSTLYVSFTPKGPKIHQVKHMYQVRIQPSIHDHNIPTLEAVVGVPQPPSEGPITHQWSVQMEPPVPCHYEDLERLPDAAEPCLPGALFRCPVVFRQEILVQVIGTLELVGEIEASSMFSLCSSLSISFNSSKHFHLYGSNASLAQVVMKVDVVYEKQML
Sequence of sLFA-1/ICAM-1 (P05107 23-700 limits assumed, stated change not applied): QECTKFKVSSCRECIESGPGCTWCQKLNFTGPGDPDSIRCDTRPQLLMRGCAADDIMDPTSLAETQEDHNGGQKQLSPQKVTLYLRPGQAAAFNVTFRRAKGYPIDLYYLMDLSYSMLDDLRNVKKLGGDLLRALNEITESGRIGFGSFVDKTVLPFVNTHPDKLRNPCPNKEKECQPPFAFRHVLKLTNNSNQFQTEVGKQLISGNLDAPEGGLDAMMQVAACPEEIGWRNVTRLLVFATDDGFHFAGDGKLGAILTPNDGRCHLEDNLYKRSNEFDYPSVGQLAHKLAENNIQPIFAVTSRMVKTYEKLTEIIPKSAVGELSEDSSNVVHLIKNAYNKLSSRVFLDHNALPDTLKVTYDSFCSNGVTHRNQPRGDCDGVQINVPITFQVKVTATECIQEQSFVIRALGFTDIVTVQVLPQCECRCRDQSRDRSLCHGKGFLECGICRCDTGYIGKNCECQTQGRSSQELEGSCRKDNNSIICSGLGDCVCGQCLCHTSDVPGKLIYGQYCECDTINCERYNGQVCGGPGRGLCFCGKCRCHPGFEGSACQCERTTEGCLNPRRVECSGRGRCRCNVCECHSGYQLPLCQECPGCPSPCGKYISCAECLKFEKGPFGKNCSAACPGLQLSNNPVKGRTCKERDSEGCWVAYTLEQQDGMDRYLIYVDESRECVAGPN

Compound | pIC50
O=C(NCc1cccc(O)c1)c1cc(Cl)c(C(=O)N[C@@H](CNC(=O)c2cc(O)cc(O)c2)C(=O)O)c(Cl)c1 [compound 143] | ~7.96
Cc1cc(C(=O)NCc2cccc(O)c2)cc(C)c1C(=O)N[C@@H](CNC(=O)c1cccs1)C(=O)O [compound 142] | ~7.43
